From US20100323990A1, “SHIP 1 MODULATOR PRODRUGS” (THE UNIVERSITY OF BRITISH COLUMBIA, priority 2006, published 2010) come the findings set out here.

Test [1] relates to J774.1a macrophage cells. Put plainly: Macrophage TNF-α production (Assay 2). Further: key: a ‘+’ indicates a positive result for desired activity; a ‘−’ indicates a negative result for desired activity. The format is cell-based. Conditions: 10 μg/mL test compound, 100 ng/mL LPS, supernatants after 2 hr and 5 hr. The procedure: (§1) Assay 1) In vitro testing in a SHIP enzyme assay. Test compounds were dissolved in a suitable solvent (e.g. EtOH, DMSO and others) and diluted into aqueous buffer (20 mM Tris HCl, pH 7.5 and 10 mM MgCl2). SHIP enzyme assays were performed in 96-well microtitre plates with 10 ng of enzyme/well in a total volume of 25 μL of 20 mM Tris HCl, pH 7.5 and 10 mM MgCl2. SHIP enzyme was incubated with test extracts (provided in solvent) or vehicle for 15 min at 23° C. before the addition of 100 μM inositol-1,3,4,5-tetrakisphosphate (Echelon Biosciences Inc, Salt Lake City, Utah). After 20 min at 37° C. and the amount of inorganic phosphate released assessed by the addition of Malachite Green reagent and absorbance measurement at 650 nm. Assay 2) Macrophage TNF-α production. J774.1a macrophage cells were treated with 10 μg/mL of test compound dissolved in solvent (e.g. cyclodextran) for 40 minutes prior to the addition of 100 ng/mL LPS. Culture supernatants were collected after 2 hr and 5 hr for TNF-α determination by ELISA. Assay 3) Macrophage TNF-α NO assay. J774.1a macrophage cells were treated with 10 μg/ml of test compound dissolved in solvent for 40 minutes prior to the addition of LPS. Culture supernatants were collected after 24 hr. for determination of NO concentration using the Griess reagent. Assay 4) Stimulation of mast cells by FcεRI crosslinking. Mast cells were pre-loaded overnight in BMMC medium lacking IL-3 with 0.1 μg/ml anti-DNP IgE (SPE-7, Sigma, Oakville, Ont). For calcium flux measurements, cells were incubated with 2 μM fura 2-acetoxymethyl ester (Molecular Probes, Eugene, Oreg.) in Tyrode's buffer at 23° C. for 45 min. Cells were then washed and incubated in the presence of the test compound 30 min prior to stimulation with the indicated concentration of DNP-human serum albumin (DNP-HSA). Calcium influx was monitored by spectrofluorometry as described previously. For analysis of intracellular signaling, cells were pre-loaded with anti-DNP IgE as above, pre-treated with the test compound for 30 min at 37° C. and stimulated with 20 ng/ml DNP-HSA for 5 min. Total cell lysates were then prepared and analyzed for phospho-PKB, phospho-p38^MAPK, phospho-MAPK, Grb-2 (Cell Signalling, Mississauga, Ont) and SHIP^6 by immunoblot analysis. Assay 5) Mouse acute cutaneous anaphylaxis model. 6-8 week old CD1 mice (University of British Columbia Animal Facility, Vancouver, BC) were sensitized to the hapten DNP by cutaneous application of 25 μL of 0.5% dinitrofluorobenzene (DNFB) (Sigma, Oakville, Ont) in acetone to the shaved abdomen of mice for two consecutive days. 24 hrs later, test substances (dissolved in 10 μL of 1:2 DMSO:MeOH) were painted on the right ear while the left ear received vehicle control. 30 min after drug application, DNFB was applied to both ears to induce mast cell degranulation. A 6 mm punch was taken from the ear and immediately frozen on dry ice for subsequent determination of neutrophil myeloperoxidase (MPO) activity. Assay 6) Mouse endotoxemia model. 6-8 week old C57B16 mice (VCHRI Mammalian Model of Human Disease Core Facility, Vancouver, BC) were orally administered the test compound 30 min prior to an IP injection of 2 mg/kg of LPS (E. Coli serotype 0111:B4, Sigma, Oakville, Ont). Blood was drawn 2 hrs later for determination of plasma TNFα by ELISA. Assay 7) In vitro Mulitple Myeloma (MM) assay. The ability of SHIP activators to reduce tumor cell survival was assessed in MM cell lines treated with the test compound. The lines OPM1, OPM2, MM.1S and RPMI 8226 were plated at a density of 1×10^5 cells/mL in 200 μL of medium with various concentrations of the test compound, and viable cell numbers were determined on day 3 and day 5 by trypan blue exclusion. The lines RPMI 8226 and U266 were plated at a density of 1×10^6 cells/mL in 250 μL of medium with various concentrations of the test compound. At day 4, the medium of each culture was replaced by fresh medium containing the same concentration of test compound. […]

Another test has as its system Mast cells. Put plainly: Stimulation of mast cells by FcεRI crosslinking (Assay 4). The format is cell-based. Conditions: test compound 30 min prior to DNP-HSA. The procedure:
as §1, with “6-8 week old CD1 mice (University of British Columbia Animal Facility, Vancouver, BC) were sensitized to the hapten DNP by cutaneous application of 25 μL of 0.5% dinitrofluorobenzene (DNFB) (Sigma, Oakville, Ont) in acetone to the shaved abdomen of mice for two consecutive days. 24 hrs later, test substances (dissolved in 10 μL of 1:2 DMSO:MeOH) were painted on the right ear while the left ear received vehicle control. 30 min after drug application, DNFB was applied to both ears to induce mast cell degranulation. A 6 mm punch was taken from the ear and immediately frozen on dry ice for subsequent determination of neutrophil myeloperoxidase (MPO) activity. Assay 6) Mouse endotoxemia model. 6-8 week old C57B16 mice (VCHRI Mammalian Model of Human Disease Core Facility, Vancouver, BC) were orally administered the test compound 30 min prior to an IP injection of 2 mg/kg of LPS (E. Coli serotype 0111:B4, Sigma, Oakville, Ont). Blood was drawn 2 hrs later for determination of plasma TNFα by ELISA. Assay 7) In vitro Mulitple Myeloma (MM) assay.” left out, “exclusion.” for “exclusion. The lines RPMI 8226 and U266 were plated at a density of 1×10^6 cells/mL in 250 μL of medium with various concentrations of the test compound. At day 4, the medium of each culture was replaced by fresh medium containing the same concentration of test compound.”

The test system of a further test is MM cell lines. Description: In vitro Multiple Myeloma (MM) assay (Assay 7). Further: key: a ‘+’ indicates a positive result for desired activity; a ‘−’ indicates a negative result for desired activity. The format is cell-based. The following applies: viable cell number by trypan blue; [3H]-thymidine. On the procedure:
as §1

Test [2] deals with J774.1a macrophage cells. Description: Macrophage TNF-α NO assay (Assay 3), Griess reagent. Further: key: a ‘+’ indicates a positive result for desired activity; a ‘−’ indicates a negative result for desired activity. The class given is cell-based. The following applies: 10 μg/ml test compound, LPS, supernatants after 24 hr. The procedure:
as §1
Background: The Griess reaction detects nitrite, a stable product of nitric oxide.

Another test concerns plasma TNFα. Description: Mouse endotoxemia model (Assay 6), plasma TNFα by ELISA. The following applies: oral, 30 min prior to IP 2 mg/kg LPS, plasma TNFα 2 hrs later. The format is in vivo, mice. The procedure: as §1, with “6-8 week old C57B16 mice (VCHRI Mammalian Model of Human Disease Core Facility, Vancouver, BC) were orally administered the test compound 30 min prior to an IP injection of 2 mg/kg of LPS (E. Coli serotype 0111:B4, Sigma, Oakville, Ont). Blood was drawn 2 hrs later for determination of plasma TNFα by ELISA. Assay 7) In vitro Mulitple Myeloma (MM) assay.” left out, “exclusion.” for “exclusion. The lines RPMI 8226 and U266 were plated at a density of 1×10^6 cells/mL in 250 μL of medium with various concentrations of the test compound. At day 4, the medium of each culture was replaced by fresh medium containing the same concentration of test compound.”
Background: An ELISA detects its analyte on a solid surface through an enzyme-linked reagent.

The next test has as its system SHIP enzyme. Description: In vitro SHIP enzyme assay (Assay 1), phosphate release by Malachite Green. Further: key: a ‘+’ indicates a positive result for desired activity; a ‘−’ indicates a negative result for desired activity. The format is biochemical. Conditions: 10 ng enzyme/well, 100 μM inositol-1,3,4,5-tetrakisphosphate. The procedure:
as §1

Test [3] has as its system SHIP+/+ bone marrow derived macrophages. Put plainly: LPS-stimulated TNFα production in SHIP+/+ bone marrow derived macrophages. Conditions: SHIP+/+ cells, 15 μM, 10 ng/mL LPS 2 h. The format is cell-based, mice. The procedure: (§2) Bone marrow cells were aspirated from 4 to 8 week old C57B16×129Sv mixed background mice and SHIP^+/+ and SHIP^−/− mast cells prepared as described previously. Bone marrow derived macrophages from SHIP^+/+ and SHIP^−/− mice were obtained and maintained in IMDM supplemented with 10% FCS, 150 μM MTG, 2% C127 cell conditioned medium as a source of macrophage colony stimulating factor (M-CSF) (macrophage medium)
LPS stimulation of macrophages. For the analysis of LPS-stimulated TNFα production, 2×10^5 cells were plated the night before in 24 well plates in macrophage medium. The next day, the medium was changed and AQX-016A or carrier was added to cells at the indicated concentrations for 30 min prior to the addition of 10 ng/mL LPS. Supernatants were collected for TNFα determination by ELISA (BD Biosciences, Mississauga, ON, Canada). For analysis of intracellular signaling, 2×10^6 cells were plated the night before in 6 cm tissue culture plates. The next day, the cells were cultured in macrophage medium without M-CSF for 1 hr at 37° C. and then pretreated with AQX-016A or carrier for 30 min prior to the addition of 10 ng/mL LPS for 15 min. Cells were washed with 4° C. PBS and resuspended in lysis buffer (50 mM Hepes, 2 mM EDTA, 1 mM NaVO4, 100 mM NaF, 50 mM NaPPi and 1% NP40) supplemented with Complete Protease Inhibitor Cocktail (Roche, Montreal, Canada). Lysates were rocked at 4° C. for 30 min and clarified by centrifuging 20 min at 12000×g. Lysates were then made 1× in Laemmli's buffer, boiled 2 min and loaded onto 7.5% SDS polyacrylamide […]. Immunoblot analysis for phospho PKB (Cell Signalling, Mississauga, Ont), SHIP and actin (Santa Cruz, Santa Cruz, Calif.) were carried out as described previously. Stimulation of mast cells by FcεRI crosslinking. Mast cells were pre-loaded overnight in BMMC medium lacking IL-3 with 0.1 μg/ml anti-DNP IgE (SPE-7, Sigma, Oakville, Ont). For calcium flux measurements, cells were incubated with 2 μM fura 2-acetoxymethyl ester (Molecular Probes, Eugene, Oreg.) in Tyrode's buffer at 23° C. for 45 min. Cells were then washed and incubated in the presence of vehicle control, LY294002 or AQX-016A 30 min prior to stimulation with the indicated concentration of DNP-human serum albumin (DNP-HSA). Calcium influx was monitored by spectrofluorometry. For analysis of intracellular signaling, cells were pre-loaded with anti-DNP IgE as above, pre-treated with AQX-016A or buffer control for 30 min at 37° C. and stimulated with 20 ng/ml DNP-HSA for 5 min. Total cell lysates were then prepared and analyzed for phospho-PKB, phospho-p38^MAPK, phospho-MAPK, Grb-2 (Cell Signalling, Mississauga, Ont) and SHIP^6 by immunoblot analysis.
The target specificity and biological efficacy of AQX-016A were assessed by comparing AQX-016A's effects on PI3K-regulated processes in primary SHIP^+/+ vs SHIP^−/− macrophages and mast cells. […] LPS stimulation of macrophages is associated with a PIP3-dependent release of pro-inflammatory mediators such as TNFα. The action of AQX-016A on SHIP^+/+ vs SHIP^−/− bone marrow derived macrophages was examined. Cells were pretreated for 30 min with AQX-016A prior to stimulation with 10 ng/mL of LPS for 2 h. AQX-016A was able to suppress TNFα production in SHIP^+/+ cells by 30% at 3 μM and 50% at 15 μM (FIG. 8A). […] Activation of mast cells via IgE+ antigen crosslinking of their IgE receptors results in elevation of intracellular calcium levels.

Test [4] deals with SHIP−/− bone marrow derived macrophages. Description: LPS-stimulated TNFα production in SHIP−/− bone marrow derived macrophages. The class given is cell-based, mice. Conditions: SHIP−/− cells, 15 μM, 10 ng/mL LPS 2 h. The procedure: as §2
LPS stimulation of macrophages. For the analysis of LPS-stimulated TNFα production, 2×10^5 cells were plated the night before in 24 well plates in macrophage medium. The next day, the medium was changed and AQX-016A or carrier was added to cells at the indicated concentrations for 30 min prior to the addition of 10 ng/mL LPS. Supernatants were collected for TNFα determination by ELISA (BD Biosciences, Mississauga, ON, Canada). For analysis of intracellular signaling, 2×10^6 cells were plated the night before in 6 cm tissue culture plates. […] Calcium influx was monitored by spectrofluorometry. […] Total cell lysates were then prepared and analyzed for phospho-PKB, phospho-p38^MAPK, phospho-MAPK, Grb-2 (Cell Signalling, Mississauga, Ont) and SHIP^6 by immunoblot analysis.
The target specificity and biological efficacy of AQX-016A were assessed by comparing AQX-016A's effects on PI3K-regulated processes in primary SHIP^+/+ vs SHIP^−/− macrophages and mast cells. […]

For `Cc1cc(O)cc2c1[C@@]1(C)CCC3C(C)(C)CCC[C@]3(C)[C@H]1C2` (stereo partly shown) [Compound 125], in the test on J774.1a macrophage cells [1], the “Assay 2: Macrophage TNF-α production, desired activity” value (shortened to “Assay 2: Macrophage TNF-α production”) is given as “+”. Also, the “Assay 4: Stimulation of mast cells by FcεRI crosslinking, desired activity” value in the test with Mast cells is on record as “+”. In addition, the “Assay 7: In vitro Multiple Myeloma (MM) assay, desired activity” value in the test with MM cell lines is “+”. Further, in the test with J774.1a macrophage cells [2], the “Assay 3: Macrophage NO assay, desired activity” value (shortened to “Assay 3: Macrophage NO assay”) was “+”.

On to `Cc1cc(OC(=O)C(CC(=O)O)NC(=O)CCC(=O)O)cc2c1[C@]1(C)CCC3C(C)(C)CCC[C@]3(C)[C@H]1C2` (stereo partly shown) [Compound 114], for which, in the test on J774.1a macrophage cells [1], the “Assay 2: Macrophage TNF-α production” value is on record as “+”. Besides, in the test on plasma TNFα, the “Assay 6: Mouse endotoxemia model, desired activity” value is recorded as “+”. Besides, in the test on J774.1a macrophage cells [2], the “Assay 3: Macrophage NO assay” value is given as “+”.

With `CC1(C)CCC[C@@]2(C)C1CC[C@@]1(C)c3c(C(=O)O)cc(O)c(O)c3C[C@@H]12` (stereo partly shown), the “Assay 2: Macrophage TNF-α production” value with J774.1a macrophage cells [1] is reported as “+”. Also, the “Assay 1: SHIP enzyme assay, desired activity” value with SHIP enzyme is “+”. Further, the “Assay 3: Macrophage NO assay” value in the test with J774.1a macrophage cells [2] was “+”.

Turning to `Cc1cc(O)cc2c1[C@]1(C)CCC3C(C)(C)CCC[C@]3(C)[C@@H]1C2` (stereo partly shown) [Compound 124], the “Assay 2: Macrophage TNF-α production” value in the test on J774.1a macrophage cells [1] was “+”. For the same compound, the “Assay 4: Stimulation of mast cells by FcεRI crosslinking, desired activity” value in the test with Mast cells is “+”. The “Assay 7: In vitro Multiple Myeloma (MM) assay, desired activity” value with MM cell lines is “+”. Also, the “Assay 3: Macrophage NO assay” value in the test on J774.1a macrophage cells [2] was “+”.

As to `O=c1cc(N2CCOCC2)oc2c(-c3ccccc3)cccc12` [LY294002, reference compound], the “suppression of TNFα production” value in test [3] and in test [4] was ~40% in each case.
